# Laboratory results reported in patent US20130053410A1, “SUBSTITUTED HETEROARYL 2',3',7',7A'-TETRAHYDROSPIRO[PYRROLE-3,6'-PYRROLO[1,2-C]IMIDAZOLE]-1',2(1H,5'H)-DIONE” (priority 2011, published 2013).
# Biological target: interaction between p53 and MDM2 proteins (recombinant GST-tagged MDM2, biotinylated p53 peptide) (Homo sapiens, UniProt Q00987)
# Experiment: HTRF assay of inhibition of the p53-MDM2 interaction
# Format: binding
# Conditions: bsa: 0.02%
# Procedure: The ability of the compounds to inhibit the interaction between p53 and MDM2 proteins was measured by an HTRF (homogeneous time-resolved fluorescence) assay in which recombinant GST-tagged MDM2 binds to a peptide that resembles the MDM2-interacting region of p53. Binding of GST-MDM2 protein and p53-peptide (biotinylated on its N-terminal end) is registered by the FRET (fluorescence resonance energy transfer) between Europium (Eu)-labeled anti-GST antibody and streptavidin-conjugated Allophycocyanin (APC).
# […] Add 10 uL diluted compounds (1:5 dilution in reaction buffer) to each well, mix by shaking. Add 20 uL biotinylated p53 peptide (180 nM working solution) in reaction buffer to each well and mix on shaker. Incubate at 37° C. for 1 h. Add 20 uL streptavidin-APC and Eu-anti-GST antibody mixture (6 nM Eu-anti-GST and 60 nM streptavidin-APC working solution) in TBS buffer with 0.2% BSA, shake at room temperature for 30 minutes and read using a TRF-capable plate reader at 665 and 615 nm (Victor 5, Perkin ElmerWallac). If not specified, the reagents were purchased from Sigma Chemical Co.
# Sequence of interaction between p53 and MDM2 proteins (recombinant GST-tagged MDM2, biotinylated p53 peptide) (Q00987 whole entry): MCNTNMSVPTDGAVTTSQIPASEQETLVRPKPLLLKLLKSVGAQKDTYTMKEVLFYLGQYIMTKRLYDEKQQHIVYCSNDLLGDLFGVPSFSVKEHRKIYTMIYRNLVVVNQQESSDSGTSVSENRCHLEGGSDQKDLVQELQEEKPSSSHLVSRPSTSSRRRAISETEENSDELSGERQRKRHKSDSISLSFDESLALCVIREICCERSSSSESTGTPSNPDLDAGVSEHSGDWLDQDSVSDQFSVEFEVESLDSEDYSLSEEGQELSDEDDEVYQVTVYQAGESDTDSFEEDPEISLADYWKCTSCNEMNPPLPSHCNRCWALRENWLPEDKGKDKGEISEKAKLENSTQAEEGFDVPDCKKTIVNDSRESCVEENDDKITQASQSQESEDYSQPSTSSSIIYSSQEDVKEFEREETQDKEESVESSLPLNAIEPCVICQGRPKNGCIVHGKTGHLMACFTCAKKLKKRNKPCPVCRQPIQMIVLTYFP
row,IC50 [nM],Compound
1,9.6,"COc1cc(C(N)=O)ccc1N1C(=O)[C@H]2[C@H](c3cccc(Cl)c3F)[C@]3(C(=O)Nc4cc(Cl)ncc43)[C@H](CC(C)(C)C)N2[C@@H]1CO [Example 13, 4-((3S,3′R,5S,7S,7aR)-6′-chloro-7-(3-chloro-2-fluorophenyl)-3-(hydroxymethyl)-5-neopentyl-1,2′-dioxo-1′,2′,7,7a-tetrahydrospiro[pyrrolo[1,2-c]imidazole-6,3′-pyrrolo[3,2-c]pyridine]-2(1H,3H,5H)-yl)-3-methoxybenzamide]"
2,96,"COc1cc(C(=O)O)ccc1N1CN2[C@@H](CC(C)(C)C)[C@@]3(C(=O)Nc4ncccc43)[C@@H](c3cccc(Cl)c3F)[C@@H]2C1=O (racemic) [Example 15, rac-4-((3′R,5S,7S,7aR)-7-(3-chloro-2-fluorophenyl)-5-neopentyl-1,2′-dioxo-1′,2′,7,7a-tetrahydrospiro[pyrrolo[1,2-c]imidazole-6,3′-pyrrolo[2,3-b]pyridine]-2(1H,3H,5H)-yl)-3-methoxybenzoic acid]"
3,1160,"COc1cc(C(N)=O)ccc1N1CN2[C@@H](CC(C)(C)C)[C@]3(C(=O)Nc4cc(C)ncc43)[C@@H](c3cccc(Cl)c3F)[C@@H]2C1=O (racemic) [Example 3b, rac-4-((3′S,5S,7S,7aR)-7-(3-chloro-2-fluorophenyl)-6′-methyl-5-neopentyl-1,2′-dioxo-1′,2′,7,7a-tetrahydrospiro[pyrrolo[1,2-c]imidazole-6,3′-pyrrolo[3,2-c]pyridine]-2(1H,3H,5H)-yl)-3-methoxybenzamide]"
4,23,"COc1cc2c(cn1)[C@@]1(C(=O)N2)[C@H](CC(C)(C)C)N2CN(c3ccc(C(=O)O)cc3OC)C(=O)[C@H]2[C@@H]1c1cccc(Cl)c1F (racemic) [Example 6, rac-4-((3′R,5S,7S,7aR)-7-(3-chloro-2-fluorophenyl)-6′-methoxy-5-neopentyl-1,2′-dioxo-1′,2′,7,7a-tetrahydrospiro[pyrrolo[1,2-c]imidazole-6,3′-pyrrolo[3,2-c]pyridine]-2(1H,3H,5H)-yl)-3-methoxybenzoic acid]"
5,15,"COc1cc2c(cn1)[C@@]1(C(=O)N2)[C@H](CC(C)(C)C)N2CN(c3ccc(C(N)=O)cc3OC)C(=O)[C@H]2[C@@H]1c1cccc(Cl)c1F (racemic) [Example 7, rac-4-((3′R,5S,7S,7aR)-7-(3-chloro-2-fluorophenyl)-6′-methoxy-5-neopentyl-1,2′-dioxo-1′,2′,7,7a-tetrahydrospiro[pyrrolo[1,2-c]imidazole-6,3′-pyrrolo[3,2-c]pyridine]-2(1H,3H,5H)-yl)-3-methoxybenzamide]"
6,797,"COc1cc(C(=O)O)ccc1N1CN2[C@@H](CC(C)(C)C)[C@@]3(C(=O)Nc4ccncc43)[C@@H](c3cccc(Cl)c3F)[C@@H]2C1=O (racemic) [Example 5, rac-4-((3′R,5S,7S,7aR)-7-(3-chloro-2-fluorophenyl)-5-neopentyl-1,2′-dioxo-1′,2′,7,7a-tetrahydrospiro[pyrrolo[1,2-c]imidazole-6,3′-pyrrolo[3,2-c]pyridine]-2(1H,3H,5H)-yl)-3-methoxybenzoic acid]"
7,7.5,"COc1cc(C(N)=O)ccc1N1C(=O)[C@H]2[C@H](c3cccc(Cl)c3F)[C@]3(C(=O)Nc4cc(Cl)ncc43)[C@H](CC(C)(C)C)N2[C@@H]1C [Example 11, 4-((3S,3′R,5S,7S,7aR)-6′-chloro-7-(3-chloro-2-fluorophenyl)-3-methyl-5-neopentyl-1,2′-dioxo-1′,2′,7,7a-tetrahydrospiro[pyrrolo[1,2-c]imidazole-6,3′-pyrrolo[3,2-c]pyridine]-2(1H,3H,5H)-yl)-3-methoxybenzamide]"
8,6.8,"COc1cc(C(N)=O)ccc1N1CN2[C@@H](CC(C)(C)C)[C@@]3(C(=O)Nc4cc(Cl)ncc43)[C@@H](c3cccc(Cl)c3F)[C@@H]2C1=O [Example 1, 4-((3′R,5S,7S,7aR)-6′-chloro-7-(3-chloro-2-fluorophenyl)-5-neopentyl-1,2′-dioxo-1′,2′,7,7a-tetrahydrospiro[pyrrolo[1,2-c]imidazole-6,3′-pyrrolo[3,2-c]pyridine]-2(1H,3H,5H)-yl)-3-methoxybenzamide]"
9,102,"COc1cc(C(=O)O)ccc1N1CN2[C@@H](CC(C)(C)C)[C@@]3(C(=O)Nc4cc(C)ncc43)[C@@H](c3cccc(Cl)c3F)[C@@H]2C1=O (racemic) [Example 2, rac-4-((3′R,5S,7S,7aR)-7-(3-chloro-2-fluorophenyl)-6′-methyl-5-neopentyl-1,2′-dioxo-1′,2′,7,7a-tetrahydrospiro[pyrrolo[1,2-c]imidazole-6,3′-pyrrolo[3,2-c]pyridine]-2(1H,3H,5H)-yl)-3-methoxybenzoic acid]"
10,15,"COc1cc(C(=O)O)ccc1N1CN2[C@@H](CC(C)(C)C)[C@@]3(C(=O)Nc4nc(Cl)ccc43)[C@@H](c3cccc(Cl)c3F)[C@@H]2C1=O (racemic) [Example 9, rac-4-((3′R,5S,7S,7aR)-6′-chloro-7-(3-chloro-2-fluorophenyl)-5-neopentyl-1,2′-dioxo-1′,2′,7,7a-tetrahydrospiro[pyrrolo[1,2-c]imidazole-6,3′-pyrrolo[2,3-b]pyridine]-2(1H,3H,5H)-yl)-3-methoxybenzoic acid]"
11,7.5,"COc1cc(C(N)=O)ccc1N1C(=O)[C@H]2[C@H](c3cccc(Cl)c3F)[C@]3(C(=O)Nc4cc(Cl)ncc43)[C@H](CC(C)(C)C)N2[C@@H]1CCC1CCOCC1 [Example 14, 4-((3S,3′R,5S,7S,7aR)-6′-chloro-7-(3-chloro-2-fluorophenyl)-5-neopentyl-1,2′-dioxo-3-(2-(tetrahydro-2H-pyran-4-yl)ethyl)-1′,2′,7,7a-tetrahydrospiro[pyrrolo[1,2-c]imidazole-6,3′-pyrrolo[3,2-c]pyridine]-2(1H,3H,5H)-yl)-3-methoxybenzamide]"
12,7,"CC[C@@H]1N(c2ccc(C(N)=O)cc2OC)C(=O)[C@H]2[C@H](c3cccc(Cl)c3F)[C@]3(C(=O)Nc4cc(Cl)ncc43)[C@H](CC(C)(C)C)N12 [Example 12, 4-((3S,3′R,5S,7S,7aR)-6′-chloro-7-(3-chloro-2-fluorophenyl)-3-ethyl-5-neopentyl-1,2′-dioxo-1′,2′,7,7a-tetrahydrospiro[pyrrolo[1,2-c]imidazole-6,3′-pyrrolo[3,2-c]pyridine]-2(1H,3H,5H)-yl)-3-methoxybenzamide]"
13,89.9,"COc1cc(C(N)=O)ccc1N1CN2[C@@H](CC(C)(C)C)[C@@]3(C(=O)Nc4cc(C)ncc43)[C@@H](c3cccc(Cl)c3F)[C@@H]2C1=O (racemic) [Example 3a, rac-4-((3′R,5S,7S,7aR)-7-(3-chloro-2-fluorophenyl)-6′-methyl-5-neopentyl-1,2′-dioxo-1′,2′,7,7a-tetrahydrospiro[pyrrolo[1,2-c]imidazole-6,3′-pyrrolo[3,2-c]pyridine]-2(1H,3H,5H)-yl)-3-methoxybenzamide]"
14,21.8,"COc1cc(C(=O)O)ccc1N1CN2[C@@H](CC(C)(C)C)[C@@]3(C(=O)Nc4cc(C)cnc43)[C@@H](c3cccc(Cl)c3F)[C@@H]2C1=O (racemic) [Example 16, rac-4-((3′S,5S,7S,7aR)-7-(3-chloro-2-fluorophenyl)-6′-methyl-5-neopentyl-1,2′-dioxo-1′,2′,7,7a-tetrahydrospiro[pyrrolo[1,2-c]imidazole-6,3′-pyrrolo[3,2-b]pyridine]-2(1H,3H,5H)-yl)-3-methoxybenzoic acid]"
15,19.3,"COc1cc(C(N)=O)ccc1N1CN2[C@@H](CC(C)(C)C)[C@@]3(C(=O)Nc4nc(Cl)ccc43)[C@@H](c3cccc(Cl)c3F)[C@@H]2C1=O (racemic) [Example 10, rac-4-((3′R,5S,7S,7aR)-6′-chloro-7-(3-chloro-2-fluorophenyl)-5-neopentyl-1,2′-dioxo-1′,2′,7,7a-tetrahydrospiro[pyrrolo[1,2-c]imidazole-6,3′-pyrrolo[2,3-b]pyridine]-2(1H,3H,5H)-yl)-3-methoxybenzamide]"
